How the values were obtained:
mesothelioma MS-1 = assay: In vivo efficacy, Mouse Xenograft Model (mesothelioma MS-1); details: MS-1 xenograft, 50 mg/kg i.p. daily for 14 days, vs control group, FIG. 2
Description: (§1) The administered compounds were tested in vivo in the mouse xenograft model bearing human cancer cells. Briefly, female athymic nude mice strain NCRNU-M (5-10 weeks old, 20-25 grams in weight; Taconic, Germantown, N.Y.) was maintained in pathogen-free conditions. Three human cancer cell lines: NSCLC A549, melanoma MelJuso, and mesothelioma MS-1 were used. Five or ten mice were used in each group and injected s.c. with 3×10^6 cancer cells in the dorsal area in a volume of 100 μl. After inoculation, human cancer cells were allowed to grow in mice for 10-13 days to become visible tumor nodules. Animals were then injected with a compound of the embodiments at a dose of 50 mg/kg body weight (1 mg/mouse per day). Vehicle alone was used as control. The compounds and controls were adjusted in 40 ul volume for i.p. injection in the abdomens of the mice. Injections were performed daily around the same time for 14 days. Tumors were allowed to grow for 1-2 additional weeks after completion of the compound treatments. Tumor size was measured every three to four days, and tumor volumes were calculated using width (x) and length (y) (x^2y/2, where x<y). Throughout this period, general toxicity of the treatments was also monitored by measuring body weight of the mice. […]
Model (Mesothelioma MS-1). […] Tumor sizes was measured twice weekly until the completion of the experiments. […]

Wnt signaling pathway = assay: Quantitative real-time RT-PCR of Wnt pathway genes in xenograft tumors; format: in vivo, mouse; details: Melanoma tumor xenograft, compared to controls, FIG. 4
Description: (§2) Total RNA was isolated using Qiagen RNeasy Mini Kit (Valencia, Calif.). Hybridization probes and primers (Table 1) were purchased from Applied Biosystems (ABI, Foster City, Calif.). cDNA synthesis and Taqman® PCR were performed according to the manufactures' protocols. The gene expression was assayed in triplicate in ABI 7300 Real-time PCR System. Samples were normalized to their housekeeping gene GAPDH and then calculated by using 2^−dCt method.
To examine whether Compounds 1, 2, 4, and 6 suppressed tumor growth through inhibition of the Wnt signaling pathway in vivo, expression of the key components and direct target genes of the Wnt pathway (e.g. Wnt2, Axin2, EGFR, and Cyclin D1) were analyzed by quantitative real-time RT-PCR using total RNA isolated from the xenograft tumors. GAPDH served as a control. This RT-PCR analysis was performed using a “pooled” tumor from two randomly selected mice of each group with reasonable size tumors. […] The results are shown in FIG. 4, where C is control and V is vehicle.

[1] = Histological examination (H&E) of organs for toxicity; format: in vivo; details: mice, i.p. two doses daily for 6 days, FIGS. 8-11
Description: (§3) After the in vivo studies were completed, different organs were resected from mice. These organs included liver, lung, heart, kidney, intestines, ovary, brain, spleen, skin, and muscle. The specimens were fixed in 4% buffered formaldehyde, embedded in paraffin, sectioned, and histologically analyzed by hematoxylin and eosin (HE) staining. The HE stained slides were examined by a mouse pathologist for toxicity evidence from all the organs as compared with vehicle controls. In addition, leukocytes (WBC: white blood cell, NE: neutrophil, LY: lymphocyte, MO: monocyte, EO: eosinophil, BA: basophil) from each animal from all treatment groups were collected and leukocyte population was counted through a blood cell counter.
To analyze toxicity of the Compounds 1, 2, 4, and 6 in vivo, each group (three mice) was i.p. injected with two doses of each Compound daily for 6 days, and then major mouse organs, such as liver, spleen, kidney, and heart were resected from the mice. The specimens will be fixed in 4% buffered formaldehyde, embedded in paraffin, sectioned and histologically analyzed by hematoxylin and eosin (H&E) staining.

human NSCLC cell lines = assay: Combination treatment, MTS cell proliferation assay, NSCLC cell lines; format: cell-based; details: lung cancer cells, 72 hours, Combination Index
Description: (§4) Another assay for determining the number of viable cells in proliferation or cytotoxicity assays is the MTS assay, a colorimetric method. MTS assay reagents are commercially available (Promega Corp., Madison, Wis.). The reagent contains a tetrazolium compound [3-(4,5-dimethylthiazol-2-yl)-5-(3-carboxymethoxyphenyl)-2-(4-sulfophenyl)-2H-tetrazolium, inner salt; MTS] and an electron coupling reagent (phenazine ethosulfate; PES). PES has enhanced chemical stability, which allows it to be combined with MTS to form a stable solution. The MTS tetrazolium compound (Owen's reagent) is bioreduced by cells into a colored formazan product that is soluble in tissue culture medium. This conversion may be accomplished by NADPH or NADH produced by dehydrogenase enzymes in metabolically active cells. The quantity of formazan product as measured by the absorbance at 490 nm is directly proportional to the number of living cells in culture. Because the MTS formazan product is soluble in tissue culture medium, this assay requires fewer steps than procedures that use tetrazolium compounds such as MTT. The formazan product of MTT reduction is a crystalline precipitate that requires an additional step in the procedure to dissolve the crystals before recording absorbance readings at 570 nm.
(§5) Combination treatments of the Compounds with several chemotherapies: erlotinib (Tarceva®), PI3K inhibitor LY294002, TGFβ inhibitor SB431542, and pemetrexed (Alimta®) were performed in human NSCLC and MM cell lines (FIGS. 12-17). In all experiments, NSCLC and MM cell lines were treated with different doses of each compound or combination for 72 hours, and MTS assays were performed to determine the cell proliferations. Combination Index (CI), calculated by CalcuSyn software (Biosoft, Cambridge, UK), was applied to describe the effect of the combination effects of two compounds, where CI<1 indicates Synergism, CI=1 indicates Additive effects, and CI>1 indicates Antagonism. Student's t-tests were applied for statistical analysis.

[2] = Preliminary in vivo toxicity: leukocyte population and body weight after in vivo treatment; set-up: species or system mouse; details: mice; for Changes of leukocyte population: at completion of the in vivo studies, FIG. 5; for Loss of body weight: during the course of drug administration, FIG. 6
Description: (§6) The administered compounds were tested in vivo in the mouse xenograft model bearing human cancer cells. Briefly, female athymic nude mice strain NCRNU-M (5-10 weeks old, 20-25 grams in weight; Taconic, Germantown, N.Y.) was maintained in pathogen-free conditions. Three human cancer cell lines: NSCLC A549, melanoma MelJuso, and mesothelioma MS-1 were used. Five or ten mice were used in each group and injected s.c. with 3×10^6 cancer cells in the dorsal area in a volume of 100 μl. After inoculation, human cancer cells were allowed to grow in mice for 10-13 days to become visible tumor nodules. Animals were then injected with a compound of the embodiments at a dose of 50 mg/kg body weight (1 mg/mouse per day). Vehicle alone was used as control. The compounds and controls were adjusted in 40 ul volume for i.p. injection in the abdomens of the mice. Injections were performed daily around the same time for 14 days. Tumors were allowed to grow for 1-2 additional weeks after completion of the compound treatments. Tumor size was measured every three to four days, and tumor volumes were calculated using width (x) and length (y) (x^2y/2, where x<y). Throughout this period, general toxicity of the treatments was also monitored by measuring body weight of the mice. Data was presented as mean values (±S.D.).
as §3
(§7) As preliminary in vivo toxicity study of Compounds 1, 2, 4, and 6, it was examined if there were changes of leukocyte population and loss of body weight in the mice after the treatment. At the completion of the in vivo studies as described herein, leukocytes (WBC: white blood cell, NE: neutrophil, LY: lymphocyte, MO: monocyte, EO: eosinophil, BA: basophil) from each animal from all treatment groups were collected and leukocyte population was counted through a blood cell counter. Body weights of control groups (n=10) and the treated group (n=10) were measured using a scale during the course of drug administration. […] In an additional toxicity study, effect of different doses of compounds 4 and 6 on the body weight of mice was examined. The compounds were i.p. injected in the abdomens at 3 different doses: 25, 50, and 100 mg/kg body weight to mice (3 mice per dosing group) for 6 consecutive days.

melanoma MelJuso = assay: In vivo efficacy, Mouse Xenograft Model (melanoma MelJuso); details: 50 mg/kg i.p. daily for 14 days, FIG. 1; for Tumor growth after treatment: vs vehicle
Description: as §6
In vivo efficacy study of Compounds 1, 2, 4, and 6 were performed using a Mouse Xenograft Model (Melanoma MelJuso). Mice were injected s.c. with 3×10^6 cells in the dorsal area in a volume of 100 μl. 13 days after inoculation, the mice started receiving treatments with the administered compound at a dose of 50 mg/kg body weight daily for 14 days (n=10). Vehicle alone was used as control (n=10). The administered compounds and vehicle were adjusted in a volume of 40 μl for i.p. injection in the abdomens of the mice. Tumor size and tumor volumes were calculated as described above.

[3] = tested on: human MM cell lines (mesothelioma cells); assay: Combination treatment, MTS cell proliferation assay, MM (mesothelioma) cell lines; format: cell-based; details: 72 hours, Combination Index
Description: as §4, §5

[4] = Additional toxicity study: body weight at different doses; format: in vivo, mouse; details: mice, i.p. 25, 50 and 100 mg/kg for 6 consecutive days, FIG. 7
Description: Each dosing group contained 3 mice. The body weight of mice was measured using a scale. Results are the means±SD (error bars).
as §7

NSCLC A549 = assay: In vivo efficacy, Mouse Xenograft Model (lung cancer A549); details: 50 mg/kg i.p. daily for 14 days then another 7 days, tumors weighed day 43, vs control group, FIG. 3
Description: as §1, with “Tumors were allowed to grow for 1-2 additional weeks after completion of the compound treatments.” left out
In vivo efficacy study of Compounds 1 and 4 in Mouse Xenograft Model (NSCLC A549) was examined. […] 43 days after the initial tumor inoculation, tumors were dissected from the mice of each group and their weights were measured using a scale. […]

[5] = tested on: Hedgehog signaling pathway; assay: Quantitative real-time RT-PCR of Hh pathway genes in xenograft tumors; format: in vivo, mouse; details: Melanoma tumor (MelJuso) xenograft, pooled tumor from two mice, FIG. 4
Description: as §2
To examine whether Compounds 1, 2, 4, and 6 suppressed tumor growth through inhibition of the Hedgehog signaling pathway in vivo, expression of the key components and direct target genes of the Hh pathway (e.g. Gli1, Gli2, Gli3, HHIP and Cyclin D1) were analyzed by quantitative real-time RT-PCR using total RNA isolated from the xenograft tumors. GAPDH served as a control. This RT-PCR analysis was performed using a “pooled” tumor from two randomly selected mice of each group with reasonable size tumors. […] The results are shown in FIG. 4, where C is control and V is vehicle.

SMILES | Tumor weight after treatment (mesothelioma MS-1) | Expression of the key indicator of canonical Wnt activation in tumor (Wnt signaling pathway) | Toxicity in organs (liver, spleen, kidney, heart), H&E histology [1] | Combination effect with erlotinib (Tarceva) (human NSCLC cell lines; FIG. 12) | Changes of leukocyte population [2] | Loss of body weight [2] | Tumor weight after treatment (melanoma MelJuso) | Tumor growth after treatment (melanoma MelJuso) | Combination effect with erlotinib (Tarceva) ([3]; FIG. 13) | Loss of body weight [4] | Tumor weight after treatment (NSCLC A549) | Hh signaling (expression of Gli1, Gli2, Gli3, HHIP, Cyclin D1) in tumor [5] | Combination effect with PI3K inhibitor LY294002 (human NSCLC cell lines; FIG. 14) | Combination effect with TGFβ inhibitor SB431542 (human NSCLC cell lines; FIG. 16) | Combination effect with PI3K inhibitor LY294002 ([3]; FIG. 15) | Combination effect with pemetrexed (Alimta) ([3]; FIG. 17)
CCCC1C(C(=O)NCCCC(C)(C)CO)C(c2ccc(F)cc2)=NN1c1ccccc1 (stereo not drawn) [Compound 4, 3-(4-fluoro-phenyl)-1-phenyl-5-propyl-4,5-dihydro-1H-pyrazole-4-carboxylic acid (5-hydroxy-4,4-dimethyl-pentyl)-amide] | significantly decreased | significantly down-regulated | No noticeable toxicity | synergy | No noticeable changes | No noticeable changes of leukocyte population or loss of the body weight | significantly decreased | dramatically suppressed | synergy | no noticeable loss | significantly decreased | inhibited | – | – | – | –
O=C(NCc1ccc(O)cc1)C1C(c2ccccc2)=NN(c2ccccc2)C1c1ccccc1 (stereo not drawn) [Compound 2, 1,3,5-triphenyl-4,5-dihydro-1H-pyrazole-4-carboxylic acid 4-hydroxy-benzylamide] | – | significantly down-regulated | No noticeable toxicity | – | No noticeable changes | No noticeable changes of leukocyte population or loss of the body weight | significantly decreased | dramatically suppressed | – | – | – | inhibited | – | – | – | –
CC(C)(CO)CCCNC(=O)C1C(c2ccccc2)=NN(c2ccccc2)C1c1ccsc1 (stereo not drawn) [Compound 1, 1,3-diphenyl-5-thiophen-3-yl-4,5-dihydro-1H-pyrazole-4-carboxylic acid (5-hydroxy-4,4-dimethyl-pentyl)-amide] | significantly decreased | significantly down-regulated | No noticeable toxicity | – | No noticeable changes | No noticeable changes of leukocyte population or loss of the body weight | significantly decreased | dramatically suppressed | – | – | significantly decreased | inhibited | – | – | – | –
CC(C)(CO)CCCNC(=O)C1C(c2ccc(F)cc2)=NN(c2ccccc2)C1c1cccc(F)c1 (stereo not drawn) [Compound 6, 3-(4-fluoro-phenyl)-5-(3-fluoro-phenyl)-1-phenyl-4,5-dihydro-1H-pyrazole-4-carboxylic acid (5-hydroxy-4,4-dimethyl-pentyl)-amide] | – | – | No noticeable toxicity | – | No noticeable changes | No noticeable changes of leukocyte population or loss of the body weight | significantly decreased | dramatically suppressed | – | no noticeable loss | – | inhibited | synergy | synergy | synergy | synergy

— patent US9370521B2, “Targeting GLI proteins in human cancer by small molecules” (The Regents of the University of California, priority 2011, dated 2016)
